The nature of data set [1]: Solvent characteristics (hydrophobic / polar / hydrophilic / complex). The data set is classed as physicochemical. The text has this:
[…] conceptual segments were defined for nonelectrolyte molecules: a hydrophobic segment, a polar segment, a hydrophilic segment and a solvation segment. […] Real molecules in turn are used as reference molecules for the conceptual segments and available phase equilibrium data of these reference molecules are used to identify NRTL binary parameters for the conceptual segments. […] The study was focused on the 59 ICH solvents used in pharmaceutical process design.
Hydrocarbon solvents (aliphatic or aromatic), halogenated hydrocarbons, and ethers are mainly hydrophobic. Ketones, esters and amides are both hydrophobic and polar. Alcohols, glycols, and amines may have both substantial hydrophilicity and hydrophobicity. Acids are complex, with hydrophilicity, polarity, and hydrophobicity.

The conditions of data set [2]: compiled from internet websites and Aspen Properties v2004.1; cited from earlier work.

As to `CC(=O)OC(C)C` [ISOPROPYL-ACETATE, Isopropyl-acetate], the Solvent characteristics entry in data set [1] is “Polar”.
For the compound `CCOC=O` [ETHYL-FORMATE, Ethyl-formate], in data set [1], the Solvent characteristics entry was “Polar”. Besides, the “dielectric constant at 298.15 K” value in data set [2] was 7.16.
In the case of `CCCCCCC` [N-HEPTANE, n-Heptane], the Solvent characteristics result in data set [1] is given as “Hydrophobic”. Besides, the “dielectric constant at 298.15 K” value in data set [2] is 1.92.
For the compound `CCCO` [1-PROPANOL, 1-Propanol], the Solvent characteristics entry in data set [1] is “Hydrophobic/”. Besides, the “dielectric constant at 298.15 K” value in data set [2] was 20.1.
Take `O=CO` [FORMIC-ACID, Formic-acid]: the Solvent characteristics entry in data set [1] is “Complex”.
Regarding `C[N+](=O)[O-]` [NITROMETHANE, Nitromethane], the Solvent characteristics entry in data set [1] was “Polar”. Further, the “dielectric constant at 298.15 K” value in data set [2] is recorded as 6.26.
As for `Clc1ccccc1` [CHLOROBENZENE, Chlorobenzene], the Solvent characteristics result in data set [1] is listed as “Hydrophobic”. The “dielectric constant at 298.15 K” value in data set [2] is recorded as 5.56.
Take `OCCO` [Ethylene-glycol]: in data set [1], the Solvent characteristics entry is listed as “Hydrophilic”.
Take `ClC(Cl)Cl` [CHLOROFORM, Chloroform]: the Solvent characteristics entry in data set [1] is on record as “Hydrophobic”.
On to `Cc1ccccc1` [TOLUENE, Toluene], for which, in data set [1], the Solvent characteristics entry is “Hydrophobic”. The “dielectric constant at 298.15 K” value in data set [2] is 2.36.
For `CC(C)CO` [ISOBUTANOL, Isobutanol], the Solvent characteristics entry in data set [1] is given as “Hydrophobic/”. In data set [2], the “dielectric constant at 298.15 K” value is reported as 17.9.
As to `COC(C)=O` [METHYL-ACETATE, Methyl-acetate], the Solvent characteristics result in data set [1] is on record as “Polar”. The “dielectric constant at 298.15 K” value in data set [2] was 6.68.
Take `CCO` [ETHANOL, Ethanol]: the Solvent characteristics entry in data set [1] was “Hydrophobic/”. Also, in data set [2], the “dielectric constant at 298.15 K” value was 24.11.
On to `CC(C)O` [ISOPROPYL-ALCOHOL, Isopropyl-alcohol], for which, in data set [1], the Solvent characteristics entry was “Hydrophobic/”. Besides, the “dielectric constant at 298.15 K” value in data set [2] is 19.9.
Turning to `c1ccccc1` [BENZENE, Benzene], in data set [1], the Solvent characteristics entry is recorded as “Hydrophobic”. In addition, the “dielectric constant at 298.15 K” value in data set [2] is given as 2.27.
With `NC=O` [FORMAMIDE, Formamide], the Solvent characteristics result in data set [1] is reported as “Complex”. In data set [2], the “dielectric constant at 298.15 K” value is given as 109.5.
With `CO` [METHANOL, Methanol], the Solvent characteristics result in data set [1] is “Hydrophobic/”. Besides, in data set [2], the “dielectric constant at 298.15 K” value was 32.62.
In the case of `CCCCCCCCO` [1-OCTANOL, 1-Octanol], the Solvent characteristics result in data set [1] is recorded as “Hydrophobic/”. Moreover, the “dielectric constant at 298.15 K” value in data set [2] is 10.3.
Consider methyl-butyl-ketone (2-hexanone), for which the Solvent characteristics result in data set [1] is “Hydrophobic/Polar”. Besides, the “dielectric constant at 298.15 K” value in data set [2] is 14.6.
`CCOCCO` [2-ETHOXYETHANOL, 2-Ethoxyethanol]: in data set [1], the Solvent characteristics entry was “Hydrophobic/”.
In the case of `ClC(Cl)(Cl)Cl` [CARBON-TETRACHLORIDE, Carbon-tetrachloride], the Solvent characteristics result in data set [1] is “Hydrophobic”. Also, in data set [2], the “dielectric constant at 298.15 K” value was 2.23.
On to `CCN(CC)CC` [TRIETHYLAMINE, Triethylamine], for which the Solvent characteristics result in data set [1] is “Hydrophobic/Polar”. Further, the “dielectric constant at 298.15 K” value in data set [2] is on record as 2.44.
Take `CC(=O)OCC(C)C` [ISOBUTYL-ACETATE, Isobutyl-acetate]: in data set [1], the Solvent characteristics result was “Polar”. The “dielectric constant at 298.15 K” value in data set [2] is reported as 5.6.
Consider `CCCCC` [N-PENTANE, n-Pentane], for which the Solvent characteristics entry in data set [1] was “Hydrophobic”. In data set [2], the “dielectric constant at 298.15 K” value was 1.84.
Take `c1ccc2c(c1)CCCC2` [1,2,3,4-TETRAHYDRONAPHTHALENE, 1,2,3,4-Tetrahydronaphthalene]: the Solvent characteristics entry in data set [1] is given as “Hydrophobic”.
For the compound `O` [WATER, Water], the Solvent characteristics entry in data set [1] is “Hydrophilic”. The “dielectric constant at 298.15 K” value in data set [2] is 78.54.
For the compound `c1ccncc1` [PYRIDINE, Pyridine], the Solvent characteristics entry in data set [1] is “Polar”.
`ClC=CCl` [1,2-DICHLOROETHYLENE, 1,2-Dichloroethylene]: in data set [1], the Solvent characteristics result is given as “Hydrophobic”. Also, in data set [2], the “dielectric constant at 298.15 K” value is 4.6.
Regarding `C[S+](C)[O-]` [Dimethyl-sulfoxide], in data set [1], the Solvent characteristics result was “Polar”. For the same compound, the “dielectric constant at 298.15 K” value in data set [2] was 47.2.
Consider `CCC(C)=O` [METHYL-ETHYL-KETONE, Methyl-ethyl-ketone], for which the Solvent characteristics entry in data set [1] was “Hydrophobic/Polar”. Besides, the “dielectric constant at 298.15 K” value in data set [2] is 18.5.
For the compound `ClC=C(Cl)Cl` [TRICHLOROETHYLENE, Trichloroethylene], the Solvent characteristics result in data set [1] is “Hydrophobic”. In addition, in data set [2], the “dielectric constant at 298.15 K” value is reported as 3.42.
Consider `C1CCOC1` [TETRAHYDROFURAN, Tetrahydrofuran], for which, in data set [1], the Solvent characteristics entry is given as “Polar”. The “dielectric constant at 298.15 K” value in data set [2] is given as 7.52.
In the case of `CC(C)=O` [ACETONE, Acetone], the Solvent characteristics entry in data set [1] is listed as “Polar”. Further, the “dielectric constant at 298.15 K” value in data set [2] is 20.83.
Turning to `O=S1(=O)CCCC1` [SULFOLANE, Sulfolane], in data set [1], the Solvent characteristics result is recorded as “Polar”. Further, in data set [2], the “dielectric constant at 298.15 K” value is on record as 43.3.
`C1CCCCC1` [CYCLOHEXANE, Cyclohexane]: the Solvent characteristics result in data set [1] is on record as “Hydrophobic”. Further, in data set [2], the “dielectric constant at 298.15 K” value is listed as 2.02.
Take `CCC(C)O` (stereo not drawn) [2-BUTANOL, 2-Butanol]: the Solvent characteristics entry in data set [1] is “Hydrophobic/”. Further, in data set [2], the “dielectric constant at 298.15 K” value is given as 15.8.
For the compound `CC(C)CCO` [3-METHYL-1-BUTANOL, 3-Methyl-1-butanol], the Solvent characteristics result in data set [1] is recorded as “Hydrophobic/”. Besides, in data set [2], the “dielectric constant at 298.15 K” value was 14.7.
Consider `ClCCCl` [1,2-DICHLOROETHANE, 1,2-Dichloroethane], for which, in data set [1], the Solvent characteristics result is recorded as “Hydrophobic”. In data set [2], the “dielectric constant at 298.15 K” value is listed as 10.19.
As to `CC(=O)CC(C)C` [METHYL-ISOBUTYL-KETONE, Methyl-isobutyl-ketone], the Solvent characteristics result in data set [1] is “Hydrophobic/Polar”. The “dielectric constant at 298.15 K” value in data set [2] was 13.1.
In the case of `CCCOC(C)=O` [N-PROPYL-ACETATE, n-propyl-acetate], the Solvent characteristics entry in data set [1] is recorded as “Hydrophobic/Polar”. The “dielectric constant at 298.15 K” value in data set [2] is 6.
For `C=C(Cl)Cl` [1,1-DICHLOROETHYLENE, 1,1-Dichloroethylene], in data set [1], the Solvent characteristics entry is recorded as “Hydrophobic”. Besides, the “dielectric constant at 298.15 K” value in data set [2] is listed as 4.6.
Regarding `CC1CCCCC1` [METHYLCYCLOHEXANE, Methylcyclohexane], the Solvent characteristics entry in data set [1] is reported as “Polar”. For the same compound, in data set [2], the “dielectric constant at 298.15 K” value was 2.02.
For the compound `CC(Cl)(Cl)Cl` [1,1,1-TRICHLOROETHANE, 1,1,1-Trichloroethane], the Solvent characteristics entry in data set [1] is reported as “Hydrophobic”. Further, the “dielectric constant at 298.15 K” value in data set [2] is 7.5.
Take `CCCCO` [1-BUTANOL, 1-Butanol]: the Solvent characteristics entry in data set [1] is “Hydrophobic/”. Also, the “dielectric constant at 298.15 K” value in data set [2] is reported as 17.7.
Turning to `COCCOC` [1,2-DIMETHOXYETHANE, 1,2-Dimethoxyethane], the Solvent characteristics result in data set [1] is “Polar”.
`COCCO` [2-METHOXYETHANOL, 2-Methoxyethanol]: the Solvent characteristics entry in data set [1] is on record as “Hydrophobic/”.
On the same count and under the same terms, as for `CCCCCC` [N-HEXANE, n-Hexane], the entry is “Hydrophobic”.

(Values after US8666675B2, “Computer method and system for predicting physical properties using a conceptual segment model” (Aspen Technology, Inc., priority 2004, dated 2014).)
